Laboratory results reported in ChEMBL document CHEMBL5512597, “Triazole hybrid compounds: A new frontier in malaria treatment” (Eur J Med Chem, 2023).
≈ marks a conversion by molar mass, not a printed value. Values belong to the molecule of their own block, whether it stands above or below them.

What was measured:
Plasmodium falciparum [1] = assay: Antimalarial activity against Plasmodium falciparum 3D7 assessed as inhibition of parasitemia incubated for 72 hrs by fluorescence based assay; format: functional, organism-based; conditions: 3D7, 72 h
[2] = Inhibition of Plasmodium falciparum SR21
Plasmodium falciparum [3] = assay: Antiplasmodial activity against Plasmodium falciparum 3D7 at asexual erythrocytic stage infected in human erythrocytes assessed as parasite growth inhibition incubated for 42 hrs by [3H]-hypoxanthine incorporation assay; format: functional, organism-based; conditions: 3D7, Erythrocyte
Plasmodium falciparum [4] = assay: Antimalarial activity against Plasmodium falciparum 3D7 assessed as inhibition of parasite proliferation; format: functional, organism-based
Plasmodium falciparum [5] = assay: Antimalarial activity against Plasmodium falciparum […] incubated for 48 hrs; format: functional, organism-based
Plasmodium falciparum [6] = assay: Antimalarial activity against Plasmodium falciparum 3D7 infected in erythrocytes assessed as parasite growth inhibition incubated for 42 hrs by [3H]-hypoxanthine incorporation assay; format: functional, organism-based; conditions: 3D7, Erythrocyte
Plasmodium falciparum [7] = assay: Antimalarial activity against Plasmodium falciparum 3D7 at asexual stage infected in erythrocytes assessed as parasite growth inhibition incubated for 72 hrs by MSF assay; format: functional, organism-based; conditions: 3D7, Erythrocyte
[8] = Cytotoxicity against African green monkey Vero cells after 72 hrs by MTT assay; format: toxicity, cell-based; conditions: chlorocebus sabaeus
Plasmodium falciparum [9] = assay: Antimalarial activity against CQ-sensitive Plasmodium falciparum D6 assessed as parasite growth inhibition by LDH assay; format: functional, organism-based
Plasmodium falciparum [10] = assay: Antimalarial activity against CQ-resistant Plasmodium falciparum W2 assessed as parasite growth inhibition by LDH assay; format: functional, organism-based
Plasmodium falciparum [11] = assay: Antiplasmodial activity against CQ-sensitive Plasmodium falciparum NF54; format: functional, organism-based
[12] = Cytotoxicity against African green monkey Vero cells; format: toxicity, cell-based; conditions: chlorocebus sabaeus
Plasmodium falciparum [13] = assay: Antiplasmodial activity against Plasmodium falciparum K1 at asexual stage assessed as parasite growth inhibition; format: functional, organism-based
Plasmodium falciparum [14] = assay: Antiplasmodial activity against CQ-sensitive Plasmodium falciparum NF54 at asexual stage assessed as parasite growth inhibition; format: functional, organism-based
Plasmodium falciparum [15] = assay: Antiplasmodial activity against CQ-sensitive Plasmodium falciparum F32 Tanzania assessed as parasite growth inhibition incubated for 48 hrs; format: functional, organism-based
Plasmodium falciparum [16] = assay: Antimalarial activity against CQ-sensitive Plasmodium falciparum 3D7 infected in human O+ erythrocytes assessed as parasite growth inhibition incubated for 48 hrs by SYBR Green I staining based analysis; format: functional, organism-based; conditions: 3D7, Erythrocyte
Plasmodium falciparum [17] = assay: Antimalarial activity against CQ-resistant Plasmodium falciparum K1 infected in human O+ erythrocytes assessed as parasite growth inhibition incubated for 48 hrs by SYBR Green I staining based analysis; format: functional, organism-based; conditions: K1, Erythrocyte

IC50 (Plasmodium falciparum [1]): 6.67 µM
IC50 [2]: 890 nM
SMILES: O/N=C/c1cn(-c2ccc(Cl)cc2)nn1

SMILES: NS(=O)(=O)c1ccc(-n2cc(COc3ccccc3)nn2)cc1
IC50 (Plasmodium falciparum [3]): 15 µg/mL (≈ 45.4 µM)

IC50 (Plasmodium falciparum [1]): 2.8 µM
IC50 [2]: 1550 nM
SMILES: CCCCCCCCCC(=O)OCc1cn(-c2ccc(Cl)cc2)nn1

IC50 (Plasmodium falciparum [1]): 11.7 µM
SMILES: CCOCc1cn(-c2ccc(Cl)cc2)nn1

IC50 (Plasmodium falciparum [1]): 27.5 µM
SMILES: O=C(OCc1cnn(-c2ccccc2)n1)c1ccccc1

SMILES: CCCCCc1cn(CCNC(=O)[C@H](O)C(C)(C)CO)nn1
IC50 (Plasmodium falciparum [4]): 8.5 µM

SMILES: CCCCn1cc(CCNC(=O)[C@H](O)C(C)(C)CO)nn1
IC50 (Plasmodium falciparum [4]): 3.3 µM

IC50 (Plasmodium falciparum [5]): 1.5 µg/mL (≈ 3.11 µM)
SMILES: Cc1ccc(-c2cc(-c3c(C)nn(-c4ccccc4)c3-n3cncn3)n3c(n2)nc2ccccc23)cc1

IC50 (Plasmodium falciparum [5]): 1.45 µg/mL (≈ 2.91 µM)
SMILES: COc1ccc(-c2cc(-c3c(C)nn(-c4ccccc4)c3-n3cncn3)n3c(n2)nc2ccccc23)cc1

IC50 (Plasmodium falciparum [5]): 0.054 µg/mL (≈ 0.111 µM)
SMILES: Cc1nn(-c2ccccc2)c(-n2cncn2)c1-c1cc(-c2ccc(O)cc2)nc2nc3ccccc3n12

IC50 (Plasmodium falciparum [5]): 1.45 µg/mL (≈ 3.09 µM)
SMILES: Cc1nn(-c2ccccc2)c(-n2cncn2)c1-c1cc(-c2ccccc2)nc2nc3ccccc3n12

SMILES: COc1ccc2cc3[n+](cc2c1OCc1cn(-c2ccc(S(=O)(=O)N4CCOCC4)cc2)nn1)CCc1cc2c(cc1-3)OCO2.[Cl-]
IC50 (Plasmodium falciparum [6]): 0.5 µg/mL

SMILES: COc1ccc2cc3[n+](cc2c1OCc1cn(-c2ccc(S(=O)(=O)Nc4ccc(Cl)cc4)cc2)nn1)CCc1cc2c(cc1-3)OCO2.[Cl-]
IC50 (Plasmodium falciparum [6]): 0.1 µg/mL

SMILES: COc1ccc2cc3[n+](cc2c1OCc1cn(-c2ccc(S(=O)(=O)N4CCN(C)CC4)cc2)nn1)CCc1cc2c(cc1-3)OCO2.[Cl-]
IC50 (Plasmodium falciparum [6]): 0.8 µg/mL

SMILES: COc1ccc2cc3[n+](cc2c1OCc1cn(-c2ccc(S(=O)(=O)N4CCCCC4)cc2)nn1)CCc1cc2c(cc1-3)OCO2.[Cl-]
IC50 (Plasmodium falciparum [6]): 0.8 µg/mL

SMILES: O=C(Cn1cc(COc2ccc(Br)cc2)nn1)NCCNc1ccnc2cc(Cl)ccc12
IC50 (Plasmodium falciparum [7]): 40 nM
CC50 at 72 h [8]: 28.9 µM

SMILES: O=C(Cn1cc(COc2ccc(Br)cc2)nn1)NCCCNc1ccnc2cc(Cl)ccc12
CC50 at 72 h [8]: 27.1 µM

SMILES: O=C(Cn1cc(COc2ccc(Cl)cc2)nn1)NCCNc1ccnc2cc(Cl)ccc12
IC50 (Plasmodium falciparum [7]): 40 nM
CC50 at 72 h [8]: 86.8 µM

SMILES: O=C(Cn1cc(-c2ccccc2)nn1)NCCCNc1ccnc2cc(Cl)ccc12
IC50 (Plasmodium falciparum [7]): 137 nM

IC50 (Plasmodium falciparum [1]): 12.8 µM
SMILES: CCOC(=O)c1cn(-c2ccccc2)nn1

IC50 (Plasmodium falciparum [5]): 1.32 µg/mL (≈ 5.21 µM)
SMILES: Cc1nn(-c2ccccc2)c(-n2cncn2)c1C=O

SMILES: O=C1c2nnn(Cc3cccc([N+](=O)[O-])c3)c2C(=O)c2nnn(Cc3cccc([N+](=O)[O-])c3)c21
IC50 (Plasmodium falciparum [9]): 1910 nM
IC50 (Plasmodium falciparum [10]): 2890 nM

IC50 (Plasmodium falciparum [11]): > 10 µM
SMILES: CC(=O)c1ccc(-n2cc(COC(=O)[C@@]3(C)CC[C@]4(C)CC[C@]5(C)C(=CC(=O)[C@@H]6[C@@]7(C)CC[C@H](O)C(C)(C)[C@@H]7CC[C@]65C)[C@@H]4C3)nn2)cc1
CC50 [12]: 226 µM

SMILES: COC(=O)C1=C(Cn2cc(CNc3ccnc4cc(Cl)ccc34)nn2)NC(=O)NC1c1ccc(OC)cc1 (centres undefined)
IC50 (Plasmodium falciparum [13]): 567 nM
IC50 (Plasmodium falciparum [14]): 245 nM

SMILES: CCCn1cc(CCNC(=O)[C@H](O)C(C)(C)CO)nn1
IC50 (Plasmodium falciparum [4]): 5.3 µM

IC50 (Plasmodium falciparum [5]): 0.83 µg/mL (≈ 1.75 µM)
SMILES: Cc1nn(-c2ccccc2)c(-n2cncn2)c1-c1cc(-c2cccs2)nc2nc3ccccc3n12

SMILES: CCCCCn1nncc1CCNC(=O)[C@H](O)C(C)(C)CO
IC50 (Plasmodium falciparum [4]): > 100 µM

SMILES: NS(=O)(=O)c1ccc(-n2cc(COc3ccc(F)cc3)nn2)cc1
IC50 (Plasmodium falciparum [3]): 15.4 µg/mL (≈ 44.2 µM)

IC50 (Plasmodium falciparum [5]): 0.092 µg/mL (≈ 0.201 µM)
SMILES: Cc1nn(-c2ccccc2)c(-n2cncn2)c1-c1cc(-c2cc[nH]c2)nc2nc3ccccc3n12

SMILES: NC1=C(n2cc(COC3=CC(=O)c4ccccc4C3=O)nn2)C(=O)c2ccccc2C1=O
IC50 (Plasmodium falciparum [15]): > 20 µM

IC50 (Plasmodium falciparum [11]): 8.82 µM
SMILES: CC1(C)[C@@H](O)CC[C@]2(C)[C@H]3C(=O)C=C4[C@@H]5C[C@@](C)(C(=O)OCc6cn(-c7ccc(F)cc7)nn6)CC[C@]5(C)CC[C@@]4(C)[C@]3(C)CC[C@@H]12
CC50 [12]: 226 µM

SMILES: Clc1cccc(-n2cc(-c3cncc4ccccc34)nn2)c1
IC50 (Plasmodium falciparum [16]): 365 µM
IC50 (Plasmodium falciparum [17]): 95.8 µM

IC50 (Plasmodium falciparum [11]): 1.14 µM
SMILES: CC1(C)[C@@H](O)CC[C@]2(C)[C@H]3C(=O)C=C4[C@@H]5C[C@@](C)(C(=O)OCc6cn(-c7ccc(C#N)cc7)nn6)CC[C@]5(C)CC[C@@]4(C)[C@]3(C)CC[C@@H]12
CC50 [12]: 190 µM

IC50 (Plasmodium falciparum [1]): 9.29 µM
SMILES: Clc1ccc(N/N=C/c2cnn(-c3ccccc3)n2)cc1
